Source: publication PMC7998731, “Pharmacokinetic Characterization of Supinoxin and Its Physiologically Based Pharmacokinetic Modeling in Rats” (Pharmaceutics, 2021)
Read-outs that look alike come from different tables or passages of the source.

Test: Transport of supinoxin in Caco-2 cells (bidirectional permeability)
Format: in vitro ADME
Details: human
Experimental: The Caco-2 intestinal epithelial cell line (ATCC® HTB-37™) purchased from American Type Culture Collection (ATCC, Manassas, VA, USA) was cultured and maintained in Dulbecco’s modified Eagle medium (DMEM) containing 10% fetal bovine serum, 100 U/mL penicillin, and 0.1 mg/mL streptomycin under humidified atmosphere of air containing 5% CO2 at 37 °C. Caco-2 cells were seeded at a density of 6 × 10^4 cells/cm^2 onto polyethylene membranes of transwell plates (Corning Costar, Cambridge, MA, USA). The medium was replaced on alternate days after seeding, and cell monolayers were used for the transport assay after approximately 21 days of culture. Trans-epithelial electrical resistance (TEER) values of the Caco-2 monolayers were measured with an EVOM epithelial tissue voltmeter (World Precision Instruments, Sarasota, FL, USA), and cells with TEER greater than 300 Ω were used for the experiments. Cell monolayers were first rinsed three times with transport buffer (Hank’s balanced salt solution supplemented with 10 mM HEPES) and preincubated for 30 min at 37 °C. To measure the bidirectional transport of the compound, a transport buffer containing 1 µM supinoxin was added to the respective donor compartments (the apical and basolateral sides for absorptive and secretory transport assays, respectively). Samples (200 µL) were collected at 30, 60, 90, and 120 min, and an identical volume of fresh buffer was replenished. The samples were then subjected to LC–MS/MS analysis and concentrations of the samples were determined. After the final sampling from both compartments, we measured the TEER of the monolayers to ensure no possible adverse effects induced by the experimental procedures and then estimated the apparent permeability coefficient of supinoxin from the compound’s time-dependent accumulation (dQ/dt) in the receiver compartments using the following equation: Papp = dQ/dt × 1/(A × C0)(1) where dQ/dt is the rate of transport, A is the surface area of the filter, and C0 is the initial concentration in the donor chamber.

Papp A→B at 120 min, 1 µM (Caco-2, Caco-2 cell monolayers, supinoxin 1 µM, read-out: apical to basolateral apparent permeability coefficient): 18.5 ± 2.4 ×10⁻⁶ cm/s | Papp A→B at 120 min, 1 µM (Caco-2, PBPK input parameter, Determined, read-out: Caco-2 permeability): 18.5 ×10⁻⁶ cm/s | efflux ratio at 120 min, 1 µM (Caco-2 cell monolayers): 1.24 | Papp B→A at 120 min, 1 µM (Caco-2 cell monolayers, supinoxin 1 µM, read-out: basolateral to apical apparent permeability coefficient): 22.6 ± 1.8 ×10⁻⁶ cm/s
Compound: COc1cc(OC)cc(N2CCN(C(=O)Nc3nc4cc(F)ccc4nc3OC)CC2)c1 [supinoxin, 1-(3,5-Dimethoxyphenyl)-4-[(6-Fluoro-2-Methoxyquinoxalin-3-yl) Aminocarbonyl] Piperazine]
